Laboratory results reported in US9005962B2, “Regionalised endoderm cells and uses thereof” (The University Court of the University of Edinburgh, priority 2007, dated 2015).

What was measured:
[1] = system: Hex^RS ES cells; assay: ADE (H+C+) induction, serum-free suspension (aggregation) culture, flow cytometry; type: cell-based
Description: For ADE induction under serum-free conditions in suspension culture, ES cells were seeded onto non-coated 10 cm Petri dishes at 5×10^3 cells/ml in N2B27 culture medium supplemented with 10 ng/ml Bmp4 and 20 ng/ml activin A. Following 2 days of culture the resulting EBs were harvested as above and replated on non-coated Petri dishes at the same density in SF03 culture medium (ref Tada 2005) supplemented with 20 ng/ml activin A and 20 ng/ml EGF. The media was replaced 2 days later and then every 3 days for the duration of the experiment. For some experiments 10 ng/ml Fgf4 (R&D), 10 ng/ml Bmp4, 20 ng/ml Activin A, 1×10^−5M all-trans retinoic acid, 100 ng/ml PD173074 (Sigma), 20 ng/ml EGF and 3 μM CHIR99021 were added to the culture at the indicated timepoints.
FITC-conjugated rat anti-CD184 (CXCR4), FITC-conjugated rat anti-CD31 and FITC conjugated rat anti-CD45 were purchased from BD Pharmingen. EBs generated under various different differentiation conditions were dissociated by treatment with cell dissociation buffer (PBS based) (GIBCO-BRL). Cells were washed in PBS supplemented with 10% FCS (FB) and resuspended at a maximum density of 5×10^6 cells/ml. For surface staining 200 μl of cells were plated in a V shape 96 well polystyrene plate (Sterilin) in PBS supplemented with 1% serum of the species in which the antibody was manufactured. The FITC-conjugated antibody or a FITC-conjugated isotype control was added at a 1:100 dilution. Cells were incubated in the dark for 20 mins, washed 3 times with FB and resuspended in FB supplemented with Topro3-iodide (Invitrogen) to exclude dead cell from the analysis. Cells were analysed using a FACS Calibur (BD Biosciences) or sorted using a MoFlo MLS flow cytometer (DakoCytomation). […]
FITC-conjugated rat anti-CD184 (Cxcr4), FITC-conjugated rat anti-CD31 and FITC conjugated rat anti-CD45 were purchased from BD Pharmingen. […] Cells were analysed using a FACS Calibur (BD Biosciences) or sorted using a MoFlo MLS flow cytometer (DakoCytomation).

[2] = system: Hex^RS ES cells; assay: ADE (H+C+) induction, two-step suspension (embryoid body) differentiation with serum day 0-2, flow cytometry for RS and Cxcr4; type: cell-based, mouse
Description: ADE was induced under serum-containing conditions using a 2-step protocol. ES cells were seeded onto non-coated 10 cm petri dishes (sterilin) at a density of 5×10^3 cells/ml in Glasgow minimum essential medium (G-MEM; GIBCO-BRL) supplemented with 10% fetal calf serum (FCS), 0.1 mM nonessential amino acids (GIBCO-BRL), 1 mM sodium pyruvate, 2 mM glutamine and 0.1 mM 2-mercaptoethanol (2ME). Following 2 days of culture the resulting embryoid bodies (EBs) were harvested by centrifugation at 500 rpm for 1 min and replated on 10 cm non-coated petri dishes at the same density in N2B27 culture medium (StemCellSciences) supplemented with 20 ng/ml activin A (R&D). The media was replaced 2 days later and then every 3 days for the duration of the experiment. For some experiments 20 ng/ml EGF, 10 ng/ml Bmp4, 20 ng/ml activin A (R&D), 1×10^−5M all-trans retinoic acid (Sigma) and 3 μM CHIR99021 (a gift from StemCellSciences) were added to the culture at the indicated timepoints.
(§1) FITC-conjugated rat anti-CD184 (CXCR4), FITC-conjugated rat anti-CD31 and FITC conjugated rat anti-CD45 were purchased from BD Pharmingen. EBs generated under various different differentiation conditions were dissociated by treatment with cell dissociation buffer (PBS based) (GIBCO-BRL). Cells were washed in PBS supplemented with 10% FCS (FB) and resuspended at a maximum density of 5×10^6 cells/ml. For surface staining 200 μl of cells were plated in a V shape 96 well polystyrene plate (Sterilin) in PBS supplemented with 1% serum of the species in which the antibody was manufactured. The FITC-conjugated antibody or a FITC-conjugated isotype control was added at a 1:100 dilution. Cells were incubated in the dark for 20 mins, washed 3 times with FB and resuspended in FB supplemented with Topro3-iodide (Invitrogen) to exclude dead cell from the analysis. Cells were analysed using a FACS Calibur (BD Biosciences) or sorted using a MoFlo MLS flow cytometer (DakoCytomation).
Mouse ES cells were cultured according to Li et al., (1995). ADE was induced under serum-containing conditions using a 2-step protocol. ES cells were seeded onto non-coated 10 cm petri dishes (Sterilin) at a density of 5×10^3 cells/ml in GMEM supplemented as described in Li et al., (1995) except in the absence of LIF. EBs were harvested after two days by centrifugation and replated in N2B27 medium (StemCellSciences) supplemented with 20 ng/ml activin A (R&D) and 20 ng/ml EGF (R&D). This media was replaced again two days later. 10 ng/ml BMP4, 20 ng/ml activin A (R&D) and 1×10^−5M all-trans retinoic acid (Sigma) were added where indicated.
(§2) FITC-conjugated rat anti-CD184 (Cxcr4), FITC-conjugated rat anti-CD31 and FITC conjugated rat anti-CD45 were purchased from BD Pharmingen. Cells were stained with Topro3-iodide (Invitrogen) to exclude dead cells from the analysis. Cells were analysed using a FACS Calibur (BD Biosciences) or sorted using a MoFlo MLS flow cytometer (DakoCytomation).

[3] = system: Hex^RS ES cells; assay: ADE (H+C+) induction, serum-free adherent monolayer culture, flow cytometry, RT-PCR and immunostaining; type: cell-based; details: for ADE differentiation / ability to promote ADE formation: FIG. 25; for ADE differentiation: added to cultures for days 3-4 or days 3-7, PD173074 100 ng/ml, SU5402 25 μM; for ability to promote ADE formation: monolayer, FGFs at 10 ng/ml
Description: For ADE induction under serum-free conditions in adherent monolayer culture, ES cells were seeded onto gelatin coated 3 cm 6 well dishes (Iwaki) at a density of 1×10^4 cells/ml in N2B27 medium (StemCellSciences) supplemented with 10 ng/ml Bmp4, 20 ng/ml activin A and 10 ng/ml Fgf4. Following 2 days of culture the media was replaced with SF03 culture medium (Tada 2005) supplemented with 20 ng/ml activin A, 10 ng/ml Fgf4 and 20 ng/ml EGF. The media was replaced 2 days later and then every 3 days for the duration of the experiment. For some experiments 1×10^−5M all-trans retinoic acid, 100 ng/ml PD173074 and 3 μM CHIR99021 were added to the culture at the indicated timepoints.
as §1
Total RNA was prepared from a minimum of 1×10^4 cells from sorted cell fractions, EBs, monolayer differentiated cells or ES cells using Trizol reagent (Invitrogen). 1 μg of RNA was used as a template for cDNA synthesis using Superscript III (Invitrogen). Real-time RT-PCR was performed using a LightCycler 480 (Roche) and LightCycler 480 SYBR Green 1 Master (Roche). The following cycling conditions were used: denaturation: 95° C. 5 sec, amplification: 95° C. 5 sec, 58° C. 10 sec, 72° C. 20 sec (45 cycles), 81° C. 1 sec, melt: 95° C. 1 sec, 65° C. 10 sec, 95° C. −ramp 5 C per sec continuous, cool: […] 10 sec. Standard curves were generated from plasmid. Samples were normalized to β-actin or TATA-box binding protein (TBP) expression levels.
Sorted cells were seeded onto gelatin coated 24 well dishes (Iwaki). Adherence of cells to the substrate was enhanced by centrifugation at 1200 rpm for 3 mins. Sorted cells, monolayer differentiated cells and ES cells were washed in PBS, fixed in 4% paraformaldehyde for 10 mins and permeabilised by washing in PBS supplemented with 0.1% Triton X (PBST). Cells were treated with a blocking reagent (3% serum of same species as secondary antibody, 1% BSA in PBST) for 15 min before incubation with the primary antibody at 4° C. overnight. The cells were washed with PBST and incubated with the appropriate fluorescence-tagged secondary antibody for 2 hr at room temperature. The cells were washed with PBST and DAPI added during the final wash. The following primary antibodies were used, all are anti-mouse: anti-Oct3/4, anti-HNF-3β (Foxa2), anti-HNF-4α (Santa Cruz), anti-Cer11 (R&D), anti-E-cadherin (Takara Bio Inc) anti-alpha fetoprotein (NeoMarkers), anti-albumin (Bethyl laboratories inc). Anti-Pdx1 was a gift from P. Serup. […]
as §2

[4] = FGF signalling blocked for days 3-7
[5] = exogenous FGF4, defined monolayer culture (FIG. 22C, D)

## Cc1c[nH]c(-c2cnc(NCCNc3ccc(C#N)cn3)nc2-c2ccc(Cl)cc2Cl)n1 [CHIR99021]
[1]; added during the first two days, serum-free, aggregation and monolayer (Table 7)
  total number of surviving cells at the end of the 7 day differentiation: significantly increased
[1]; serum-free differentiation (Table 7)
  total number of H+C+ cells produced: no or only very minor effects
[2]; addition at day 0-2, in the presence of serum
  induction of the H+C+ cell population: completely blocked

## CCN(CC)CCCCNc1ncc2cc(-c3cc(OC)cc(OC)c3)c(NC(=O)NC(C)(C)C)nc2n1 [PD173074, reference compound]
[3]; [4]
  H+C+ and C+ populations: complete loss
  cell survival / viability: dramatically compromised
[3]
  ADE differentiation: inhibit ADE differentiation
[3]; inhibitor present for the entire protocol
  generation of C+ and H+C+ populations: unable to generate either population
[3]; inhibitor present for the first two days of differentiation, then removed
  number of C+ and H+C+ cells: reduced number

## Cc1c[nH]c(/C=C2\C(=O)Nc3ccccc32)c1CCC(=O)O [SU5402, reference compound]
[3]
  ADE differentiation: inhibit ADE differentiation

## CC1=C(/C=C/C(C)=C/C=C/C(C)=C/C(=O)O)C(C)(C)CCC1 [retinoic acid, all-trans retinoic acid, reference compound]
[2]; added either at day 0 or day 3 (Table 2)
  induction of the RS positive population: completely blocked
[2]; added either at day 0 or day 3, data not shown
  CXCR4 induction: without effecting

## FGF2: fibroblast growth factor, 10 ng/ml
[3]
  ability to promote ADE formation: have the ability to promote ADE formation

B1: FGF4: fibroblast growth factor, 10 ng/ml (R&D) (protein, UniProt P08620 31-206, looked up)
Fibroblast growth factor 4: APTAPNGTLEAELERRWESLVALSLARLPVAAQPKEAAVQSGAGDYLLGIKRLRRLYCNVGIGFHLQALPDGRIGGAHADTRDSLLELSPVERGVVSIFGVASRFFVAMSSKGKLYGSPFFTDECTFKEILLPNNYNAYESYKYPGMFIALSKNGKTKKGNRVSPTMKVTHFLPRL
[3]; FIG. 22E, FGF4 added solely during the second phase of differentiation
  H+C+ ADE: up to 20%
[3]
  ability to promote ADE formation: have the ability to promote ADE formation
[3]; addition of Fgf4, monolayer
  number of CXCR4 expressing cells: did not increase
[3]; [5]
  anterior markers Cer1 and Gsc: induction
  expression of Foxa2 and Sox17: increased
[3]; exogenous FGF4, defined monolayer culture (FIG. 22D)
  mesodermal and primitive streak gene expression: suppressing
[3]; monolayer cultures, inclusion in the differentiation protocol
  H+C+ cell number: doubled

B2: FGF5: fibroblast growth factor, 10 ng/ml (protein, UniProt P12034 21-268, looked up)
Fibroblast growth factor 5: HGEKRLAPKGQPGPAATDRNPRGSSSRQSSSSAMSSSSASSSPAASLGSQGSGLEQSSFQWSPSGRRTGSLYCRVGIGFHLQIYPDGKVNGSHEANMLSVLEIFAVSQGIVGIRGVFSNKFLAMSKKGKLHASAKFTDDCKFRERFQENSYNTYASAIHRTEKTGREWYVALNKRGKAKRGCSPRVKPQHISTHFLPRFKQSEQPELSFTVTVPEKKKPPSPIKPKIPLSAPRKNTNSVKYRLKFRFG
[3]
  ability to promote ADE formation: not

B3: FGF10: fibroblast growth factor, 10 ng/ml (protein, UniProt O15520 38-208, looked up)
Fibroblast growth factor 10: QALGQDMVSPEATNSSSSSFSSPSSAGRHVRSYNHLQGDVRWRKLFSFTKYFLKIEKNGKVSGTKKENCPYSILEITSVEIGVVAVKAINSNYYLAMNKKGKLYGSKEFNNDCKLKERIEENGYNTYASFNWQHNGRQMYVALNGKGAPRRGQKTRRKNTSAHFLPMVVHS
[3]
  ability to promote ADE formation: not

B4: activin: secreted TGFβ ligand, activin A (R&D), 20 ng/ml (protein, UniProt P08476 311-426, looked up)
Inhibin beta A chain: GLECDGKVNICCKKQFFVSFKDIGWNDWIIAPSGYHANYCEGECPSHIAGTSGSSLSFHSTVINHYRMRGHSPFANLKSCCVPTKLRPMSMLYYDDGQNIIKKDIQNMIVEECGCS
modifications: Inhibin beta A chain
[2]; day 7, serum containing media 48 hr, then serum free media supplemented with activin 5 days
  cells RS positive: 6.8-8.6%
